Data reported in ChEMBL document CHEMBL4339188, “Tackling neuroinflammation and cholinergic deficit in Alzheimer's disease: Multi-target inhibitors of cholinesterases, cyclooxygenase-2 and 15-lipoxygenase” (Eur J Med Chem, 2019).

Legend:
Cholinesterase = Cholinesterase (Homo sapiens, UniProt P06276); assay: Inhibition of human serum BChE using butyrylthiocholine iodide as substrate pre-incubated for 20 mins before substrate addition and measured for 180 secs by spectrophotometry based Ellman's method
Cholinesterase, sequence (P06276 whole entry): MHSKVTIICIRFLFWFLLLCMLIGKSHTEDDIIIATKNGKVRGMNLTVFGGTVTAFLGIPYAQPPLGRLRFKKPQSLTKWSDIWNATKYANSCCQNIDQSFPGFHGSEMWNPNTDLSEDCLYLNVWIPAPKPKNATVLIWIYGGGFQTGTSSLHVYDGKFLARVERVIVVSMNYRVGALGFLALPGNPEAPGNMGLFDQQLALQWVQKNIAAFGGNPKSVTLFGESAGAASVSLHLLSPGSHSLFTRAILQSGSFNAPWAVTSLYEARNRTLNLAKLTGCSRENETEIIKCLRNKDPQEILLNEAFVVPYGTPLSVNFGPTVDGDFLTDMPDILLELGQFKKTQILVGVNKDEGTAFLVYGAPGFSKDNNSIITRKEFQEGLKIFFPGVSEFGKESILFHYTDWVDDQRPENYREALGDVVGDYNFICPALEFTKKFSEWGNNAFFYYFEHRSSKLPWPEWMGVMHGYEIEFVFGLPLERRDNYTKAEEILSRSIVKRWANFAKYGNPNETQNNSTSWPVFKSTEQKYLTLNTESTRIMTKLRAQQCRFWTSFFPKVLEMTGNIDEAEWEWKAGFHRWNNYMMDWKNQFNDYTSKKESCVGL

Acetylcholinesterase [1] = target: Acetylcholinesterase (Homo sapiens, UniProt P22303); assay: Inhibition of recombinant human AChE using acetylthiocholine iodide as substrate pre-incubated for 20 mins before substrate addition and measured for 180 secs by spectrophotometry based Ellman's method
Acetylcholinesterase (Homo sapiens, UniProt P22303), sequence (P22303 whole entry): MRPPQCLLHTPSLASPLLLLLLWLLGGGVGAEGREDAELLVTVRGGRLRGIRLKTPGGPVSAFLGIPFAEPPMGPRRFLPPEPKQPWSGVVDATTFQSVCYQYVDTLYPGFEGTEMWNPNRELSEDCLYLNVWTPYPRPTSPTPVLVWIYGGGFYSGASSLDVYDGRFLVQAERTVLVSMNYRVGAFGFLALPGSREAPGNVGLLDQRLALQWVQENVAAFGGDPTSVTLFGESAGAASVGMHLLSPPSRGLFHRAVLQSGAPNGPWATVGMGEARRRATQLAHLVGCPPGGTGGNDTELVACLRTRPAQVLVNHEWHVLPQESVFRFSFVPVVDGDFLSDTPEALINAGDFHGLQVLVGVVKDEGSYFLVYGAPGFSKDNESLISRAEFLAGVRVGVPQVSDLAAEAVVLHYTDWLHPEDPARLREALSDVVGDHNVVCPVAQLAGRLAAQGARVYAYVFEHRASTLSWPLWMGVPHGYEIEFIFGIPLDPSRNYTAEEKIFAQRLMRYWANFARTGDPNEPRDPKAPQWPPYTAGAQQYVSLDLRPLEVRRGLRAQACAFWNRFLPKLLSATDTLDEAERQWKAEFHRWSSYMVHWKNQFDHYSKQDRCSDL

Acetylcholinesterase [2] = target: Acetylcholinesterase (Electrophorus electricus, UniProt O42275); assay: Inhibition of electric eel AChE using acetylthiocholine iodide as substrate incubated for 10 mins by spectrophotometry based Ellman's method
Acetylcholinesterase (Electrophorus electricus, UniProt O42275), sequence (O42275 whole entry): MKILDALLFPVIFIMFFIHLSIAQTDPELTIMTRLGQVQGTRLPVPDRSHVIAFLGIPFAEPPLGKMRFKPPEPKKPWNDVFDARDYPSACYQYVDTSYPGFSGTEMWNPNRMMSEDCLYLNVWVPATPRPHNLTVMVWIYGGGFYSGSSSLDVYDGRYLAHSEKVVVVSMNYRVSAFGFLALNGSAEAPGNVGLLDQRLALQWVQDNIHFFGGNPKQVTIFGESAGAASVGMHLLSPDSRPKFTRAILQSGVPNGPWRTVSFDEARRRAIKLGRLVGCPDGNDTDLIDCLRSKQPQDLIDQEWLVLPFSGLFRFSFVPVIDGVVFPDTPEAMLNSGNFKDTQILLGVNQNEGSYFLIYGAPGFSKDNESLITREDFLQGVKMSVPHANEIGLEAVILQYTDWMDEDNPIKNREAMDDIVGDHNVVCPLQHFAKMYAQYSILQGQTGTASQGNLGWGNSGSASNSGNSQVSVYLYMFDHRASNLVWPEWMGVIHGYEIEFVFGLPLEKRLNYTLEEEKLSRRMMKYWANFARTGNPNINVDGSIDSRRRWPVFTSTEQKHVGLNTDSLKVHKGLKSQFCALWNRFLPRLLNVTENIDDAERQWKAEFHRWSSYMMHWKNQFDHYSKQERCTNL

HepG2 = assay: cells; conditions: Homo sapiens, HepG2, 72 h
Description: Cytotoxicity against human HepG2 cell assessed as reduction in cell viability incubated for 72 hrs by MTT assay

in vitro [3] = conditions: human, HepG2 cells
Description: Cytotoxicity against human HepG2 cell assessed as safe dose that maintains 100% cell viability incubated for 72 hrs by MTT assay

in vitro [4] = conditions: mouse, mouse neuronal cells
Description: Toxicity in mouse neuronal cells assessed as reduction in cell viability incubated for 72 hrs by MTT assay

in vitro [5] = conditions: mouse, mouse neuronal cells; remark: listed apart in the source
Description: Toxicity in mouse neuronal cells assessed as safe dose that maintains 100% cell viability incubated for 72 hrs by MTT assay

[6] = target: T1, Prostaglandin G/H synthase 1 (Ovis aries, UniProt P05979); assay: Inhibition of ovine COX -1 by colorimetric inhibitor screening assay kit method
T1 sequence (P05979 whole entry): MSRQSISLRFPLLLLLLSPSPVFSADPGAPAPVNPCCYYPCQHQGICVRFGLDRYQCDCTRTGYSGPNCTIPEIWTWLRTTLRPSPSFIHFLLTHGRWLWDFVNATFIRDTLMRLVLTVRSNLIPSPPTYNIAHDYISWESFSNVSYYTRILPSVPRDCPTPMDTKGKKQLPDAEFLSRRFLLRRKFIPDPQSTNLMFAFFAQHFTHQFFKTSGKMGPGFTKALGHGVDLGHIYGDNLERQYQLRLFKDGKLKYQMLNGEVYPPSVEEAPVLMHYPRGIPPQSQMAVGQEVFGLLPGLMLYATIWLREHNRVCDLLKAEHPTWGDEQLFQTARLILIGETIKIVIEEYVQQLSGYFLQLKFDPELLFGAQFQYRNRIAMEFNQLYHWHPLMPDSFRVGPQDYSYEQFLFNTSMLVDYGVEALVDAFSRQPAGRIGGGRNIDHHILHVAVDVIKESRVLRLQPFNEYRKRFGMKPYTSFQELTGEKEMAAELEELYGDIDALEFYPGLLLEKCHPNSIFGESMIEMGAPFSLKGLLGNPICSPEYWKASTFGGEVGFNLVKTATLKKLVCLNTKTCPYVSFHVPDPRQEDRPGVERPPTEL

PC-12 [7] = assay: Anti-inflammatory activity in lipopolysaccharide challenged rat PC12 cells assessed as decrease in TNFalpha production at 100 uM pre-incubated for 24 hrs before LPS challenge for 48 hrs by immunoblot analysis; type: functional
PC-12 [8] = assay: Anti-inflammatory activity in lipopolysaccharide challenged rat PC12 cells assessed as decrease in interleukin-1 beta production at 100 uM pre-incubated for 24 hrs before LPS challenge for 48 hrs by immunoblot analysis; type: functional
PC-12 [9] = assay: Cytotoxicity against rat PC12 cells assessed as reduction in cell viability up to 300 uM by MTS assay; type: cell-based
[10] = Safety index, ratio of EC100 for test compound to EC100 for tacrine for cytotoxicity against human HepG2 cell assessed as safe dose that maintains 100% cell viability incubated for 72 hrs by MTT assay; type: cell-based; conditions: HepG2 cells
in vitro [11] = conditions: PAMPA, pH 7.4

SMILES | IC50 (Cholinesterase) | IC50 (Acetylcholinesterase [1]) | IC50 (Acetylcholinesterase [2]) | IC50 (HepG2) | MNTC at 72 h (in vitro [3]) | IC50 at 72 h (in vitro [4]) | MNTC at 72 h (in vitro [5]) | IC50 [6] | inhibition at 100 µM (PC-12 [7]) | inhibition at 100 µM (PC-12 [8]) | Activity (PC-12 [9]) | selectivity ratio at 72 h [10] | Papp at 6 h, 50 µM (in vitro [11])
S=C(NNc1c2c(nc3ccccc13)CCCC2)Nc1ccc(Cl)cc1 | 0.328 µM | 0.786 µM | 3.83 µM | 21.9 µM | 1.97 µM | 7.1 µM | 2400 nM | – | – | – | – | – | –
S=C(NNc1c2c(nc3ccccc13)CCCC2)Nc1ccc(Br)cc1 | 0.426 µM | 0.571 µM | 0.861 µM | 69.5 µM | 2.96 µM | 19.7 µM | 788 nM | – | – | – | – | – | –
O=[N+]([O-])c1ccc(-n2cc(COc3ccc(/C=N/Nc4c5c(nc6ccccc46)CCCC5)cc3)nn2)cc1 | 0.0256 µM | 1.05 µM | 0.535 µM | 53.6 µM | 7.7 µM | 2.95 µM | 830 nM | – | – | – | – | – | –
Cl.Clc1ccc(-n2cc(COc3ccc(/C=N/Nc4c5c(nc6ccccc46)CCCC5)cc3)nn2)cc1 | 0.0678 µM | 7.03 µM | 4.38 µM | 178 µM | 70 µM | 8.28 µM | 3580 nM | 13.4 µM | > 60% | > 90% | Non-Toxic | 72 | 6.07 ×10⁻⁶ cm/s
NS(=O)(=O)c1ccc(-n2cc(COc3ccc(/C=N/Nc4c5c(nc6ccccc46)CCCC5)cc3)nn2)cc1 | 0.0389 µM | 1.11 µM | 0.807 µM | 25.7 µM | 1.04 µM | 16.4 µM | 1580 nM | – | – | – | – | – | –
C(=N\Nc1c2c(nc3ccccc13)CCCC2)/c1ccc(OCc2cn(-c3ccccc3)nn2)cc1 | 0.054 µM | 0.9 µM | 0.917 µM | 28.4 µM | 3.1 µM | 34.5 µM | 1950 nM | – | – | – | – | – | –
O=[N+]([O-])c1cccc(-n2cc(COc3ccc(/C=N/Nc4c5c(nc6ccccc46)CCCC5)cc3)nn2)c1 | 0.0482 µM | 1.46 µM | 0.066 µM | 50.1 µM | 4.18 µM | 28 µM | 976 nM | – | – | – | – | – | –
NS(=O)(=O)c1ccc(NC(=S)NNc2c3c(nc4ccccc24)CCCC3)cc1 | 0.307 µM | 0.961 µM | 0.792 µM | 42.3 µM | 1.19 µM | 3.25 µM | 295 nM | – | – | – | – | – | –
C(=N\Nc1c2c(nc3ccccc13)CCCC2)/c1ccc(OCc2cn(Cc3ccccc3)nn2)cc1 | 0.0361 µM | 1.05 µM | 0.547 µM | 33.4 µM | 1.2 µM | 5.71 µM | 2670 nM | – | – | – | – | – | –
COc1ccc(NC(=S)NNc2c3c(nc4ccccc24)CCCC3)cc1 | 0.568 µM | 0.293 µM | 0.91 µM | 70.7 µM | 3.33 µM | 4.33 µM | 1380 nM | – | – | – | – | – | –
Brc1ccc(-n2cc(COc3ccc(/C=N/Nc4c5c(nc6ccccc46)CCCC5)cc3)nn2)cc1.Cl | 0.0926 µM | 12.8 µM | 18.1 µM | 96.7 µM | 47.9 µM | 18.6 µM | 1000 nM | 13.9 µM | – | – | 30% | – | 6.26 ×10⁻⁶ cm/s
C#CCOc1ccc(/C=N/Nc2c3c(nc4ccccc24)CCCC3)cc1 | 0.11 µM | 2.73 µM | 0.438 µM | 46.1 µM | 2.73 µM | 8.79 µM | 4810 nM | – | – | – | – | – | –
COc1ccc(-n2cc(COc3ccc(/C=N/Nc4c5c(nc6ccccc46)CCCC5)cc3)nn2)cc1.Cl | 0.0682 µM | 2.3 µM | 2.07 µM | 65.1 µM | 27.2 µM | 3.98 µM | 1450 nM | 12.2 µM | > 60% | > 90% | 30% | 27 | 6.35 ×10⁻⁶ cm/s
C=CCNC(=S)NNc1c2c(nc3ccccc13)CCCC2 | 0.722 µM | 5.77 µM | 1.35 µM | 80 µM | 0.63 µM | 6.83 µM | 2770 nM | – | – | – | – | – | –
Cl.O=C(O)c1ccc(-n2cc(COc3ccc(/C=N/Nc4c5c(nc6ccccc46)CCCC5)cc3)nn2)cc1 | 0.304 µM | 4.03 µM | 1.32 µM | 97.9 µM | 43.1 µM | 3.71 µM | 162 nM | – | – | – | – | 43 | 1.77 ×10⁻⁶ cm/s
S=C(NNc1c2c(nc3ccccc13)CCCC2)Nc1ccccc1 | 0.748 µM | 0.61 µM | 1.85 µM | 82.9 µM | 6.78 µM | 10.9 µM | 395 nM | – | – | – | – | – | –
Cc1ccc(-n2cc(COc3ccc(/C=N/Nc4c5c(nc6ccccc46)CCCC5)cc3)nn2)cc1.Cl | 0.0757 µM | 3.75 µM | 20.2 µM | 262 µM | 113 µM | 5.85 µM | 2580 nM | 10.9 µM | > 60% | > 90% | Non-Toxic | 116 | 5.5 ×10⁻⁶ cm/s
NS(=O)(=O)c1cc2c(cc1Cl)N=CNS2(=O)=O [CHLOROTHIAZIDE] | – | – | – | – | – | – | – | – | – | – | – | – | 0.66 ×10⁻⁶ cm/s
CNC(=C[N+](=O)[O-])NCCSCc1ccc(CN(C)C)o1 [RANITIDINE] | – | – | – | – | – | – | – | – | – | – | – | – | 0.04 ×10⁻⁶ cm/s
